According to ChEMBL document CHEMBL3352395, “Quantitative structure-activity relationship of antifungal activity of rosin derivatives” (2015):

Legend:
Trametes versicolor = assay: Antifungal activity against Trametes versicolor after 3 to 5 days by paper disc method relative to 1227; format: functional
Gloeophyllum trabeum = assay: Antifungal activity against Gloeophyllum trabeum after 3 to 5 days by paper disc method relative to 1227; format: functional

Row | Structure (SMILES) | Ratio (Trametes versicolor) | log(ratio) (Trametes versicolor) | Ratio (Gloeophyllum trabeum) | log(ratio) (Gloeophyllum trabeum) | inhibition zone (IZ) (Trametes versicolor) | inhibition zone (IZ) (Gloeophyllum trabeum)
1 | CC(C)c1ccc2c(c1)CC[C@H]1[C@](C)(C(=O)OCC(O)C[N+](C)(C)CC3CO3)CCC[C@]21C (stereo not given in full) | 50 | 1.699 | 77.27 | 1.888 |  | 
2 | CC(C)C1CC[C@H]2C(CC[C@@H]3[C@]2(C)CCC[C@@]3(C)C(=O)OCC(O)CCl)C1 (stereo not given in full) | 26.67 | 1.426 | 36.36 | 1.5607 |  | 
3 | CC(C)C1=CC23CC[C@@H]4[C@](C)(CCC[C@@]4(C)C(=O)OCC(O)C[N+](C)(C)C)[C@H]2CC1CC3C(=O)OCC(O)C[N+](C)(C)C (stereo not given in full) | 70 | 1.8451 | 81.82 | 1.9128 |  | 
4 | CC(C)C1=CC23CC[C@@H]4[C@](C)(CCC[C@@]4(C)C(=O)OCC(O)C[N+](C)(C)CC4CO4)[C@H]2CC1CC3C(=O)OCC(O)C[N+](C)(C)CC1CO1 (stereo not given in full) | 60 | 1.7782 | 77.27 | 1.888 |  | 
5 | CC[N+](CC)(CC)CC(O)COC(=O)[C@]1(C)CCC[C@@]2(C)[C@H]1CCC1CC(C(C)C)CC[C@@H]12 (stereo not given in full) | 56.67 | 1.7533 | 59.09 | 1.7715 |  | 
6 | CC(C)C1=CC2=CC[C@@H]3[C@](C)(CCC[C@@]3(C)C(=O)OCC(O)C[N+](C)(C)CC3CO3)[C@H]2CC1 (stereo not given in full) | 46.67 | 1.669 | 63.64 | 1.8037 |  | 
7 | CC(C)c1ccc2c(c1)CC[C@H]1[C@](C)(C(=O)OCC(O)CCl)CCC[C@]21C (stereo not given in full) | 30 | 1.4771 | 40.91 | 1.6118 |  | 
8 | CC(C)C1CC[C@H]2C(CC[C@@H]3[C@]2(C)CCC[C@@]3(C)C(=O)OCC(O)C[N+](C)(C)C)C1 (stereo not given in full) | 53.33 | 1.727 | 59.09 | 1.7715 |  | 
9 | CC(C)C1=CC2=CC[C@@H]3[C@](C)(CCC[C@@]3(C)C(=O)OCC(O)CCl)[C@H]2CC1 (stereo not given in full) | 26.67 | 1.426 | 36.36 | 1.5607 |  | 
10 | CC(C)c1ccc2c(c1)CC[C@H]1[C@](C)(C(=O)OCC(O)CN(C)C)CCC[C@]21C (stereo not given in full) | 43.33 | 1.6368 | 68.18 | 1.8337 |  | 
11 | CC(C)C1CC[C@H]2C(CC[C@@H]3[C@]2(C)CCC[C@@]3(C)C(=O)O)C1 (stereo not given in full) | 26.67 | 1.426 | 36.36 | 1.5607 |  | 
12 | CC(C)C1=CC23CC[C@@H]4[C@](C)(CCC[C@@]4(C)C(=O)OCC(O)CN(C)C)[C@H]2CC1CC3C(=O)OCC(O)CN(C)C (stereo not given in full) | 46.67 | 1.669 | 59.09 | 1.7715 |  | 
13 | CC[N+](CC)(CC(O)COC(=O)[C@]1(C)CCC[C@@]2(C)[C@H]1CCC1CC(C(C)C)CC[C@@H]12)CC1CO1 (stereo not given in full) | 40 | 1.6021 | 59.09 | 1.7715 |  | 
14 | CC[N+](CC)(CC)CC(O)COC(=O)C1CC2C[C@H]3C1(C=C2C(C)C)CC[C@@H]1[C@]3(C)CCC[C@@]1(C)C(=O)OCC(O)C[N+](CC)(CC)CC (stereo not given in full) | 66.67 | 1.8239 | 77.27 | 1.888 |  | 
15 | CC(C)c1ccc2c(c1)CC[C@H]1[C@](C)(C(=O)OCC(O)C[N+](C)(C)C)CCC[C@]21C (stereo not given in full) | 60 | 1.7782 | 81.82 | 1.9128 |  | 
16 | CC(C)C1=CC23CC[C@@H]4[C@](C)(CCC[C@@]4(C)C(=O)OCC(O)CCl)[C@H]2CC1CC3C(=O)OCC(O)CCl (stereo not given in full) | 26.67 | 1.426 | 36.36 | 1.5607 |  | 
17 | CC[N+](CC)(CC)CC(O)COC(=O)C1C2C[C@H]3C(C=C2C(C)C)(CC[C@@H]2[C@]3(C)CCC[C@@]2(C)C(=O)OCC(O)C[N+](CC)(CC)CC)C1C(=O)OCC(O)C[N+](CC)(CC)CC.[Cl-].[Cl-].[Cl-] (stereo not given in full) | 86.7 |  | 95.5 |  | 26 mm | 21 mm
18 | CCN(CC)CC(O)COC(=O)[C@]1(C)CCC[C@@]2(C)[C@H]1CCC1CC(C(C)C)CC[C@@H]12 (stereo not given in full) | 33.33 | 1.5229 | 50 | 1.699 |  | 
19 | CC[N+](CC)(CC)CC(O)COC(=O)[C@]1(C)CCC[C@]2(C)c3ccc(C(C)C)cc3CC[C@@H]12 (stereo not given in full) | 56.67 | 1.7533 | 81.82 | 1.9128 |  | 
20 | CCOC(=O)[C@]1(C)CCC[C@@]2(C)[C@H]1CC=C1C=C(C(C)C)CC[C@@H]12 | 26.67 | 1.426 | 36.36 | 1.5607 |  | 
21 | CC(C)C1=CC2=CC[C@@H]3[C@](C)(CCC[C@@]3(C)C(=O)O)[C@H]2CC1 [ABIETIC ACID] | 26.67 | 1.426 | 36.36 | 1.5607 |  | 
22 | CC(C)C1=CC23CC[C@@H]4[C@](C)(CCC[C@@]4(C)C(=O)O)[C@H]2CC1CC3C(=O)O (stereo not given in full) | 26.67 | 1.426 | 36.36 | 1.5607 |  | 
23 | CC(C)C1=CC2=CC[C@@H]3[C@](C)(CCC[C@@]3(C)C(=O)OCC(O)C[N+](C)(C)CC[N+](C)(C)CC(O)COC(=O)[C@]3(C)CCC[C@@]4(C)[C@H]3CC=C3C=C(C(C)C)CC[C@@H]34)[C@H]2CC1 (stereo not given in full) | 56.67 | 1.7533 | 72.73 | 1.8617 |  | 
24 | CC[N+](CC)(CC(O)COC(=O)C1CC2C[C@H]3C1(C=C2C(C)C)CC[C@@H]1[C@]3(C)CCC[C@@]1(C)C(=O)OCC(O)C[N+](CC)(CC)CC1CO1)CC1CO1 (stereo not given in full) | 63.33 | 1.8016 | 77.27 | 1.888 |  | 
25 | CC(C)c1ccc2c(c1)CC[C@H]1[C@](C)(C(=O)O)CCC[C@]21C [DEHYDROABIETIC ACID] | 30 | 1.4771 | 40.91 | 1.6118 |  | 
